Experimental data published in ChEMBL document CHEMBL1140970, “Synthesis and in vitro anti-Helicobacter pylori activity of N-[5-(5-nitro-2-heteroaryl)-1,3,4-thiadiazol-2-yl]thiomorpholines and related compounds” (2008).

Tests used:
Type in all cases: functional
Settings in all cases: read-out: IZ
Helicobacter pylori [1] = experiment: Antibacterial activity against metronidazole-sensitive Helicobacter pylori at 8 ug/disk after 3 to 5 days by filter paper disk diffusion method
Helicobacter pylori [2] = experiment: Antibacterial activity against metronidazole-sensitive Helicobacter pylori at 16 ug/disk after 3 to 5 days by filter paper disk diffusion method
Helicobacter pylori [3] = experiment: Antibacterial activity against metronidazole-sensitive Helicobacter pylori at 32 ug/disk after 3 to 5 days by filter paper disk diffusion method
Helicobacter pylori [4] = experiment: Antibacterial activity against metronidazole-resistant Helicobacter pylori at 8 ug/disk after 3 to 5 days by filter paper disk diffusion method
Helicobacter pylori [5] = experiment: Antibacterial activity against metronidazole-resistant Helicobacter pylori at 16 ug/disk after 3 to 5 days by filter paper disk diffusion method
Helicobacter pylori [6] = experiment: Antibacterial activity against metronidazole-resistant Helicobacter pylori at 32 ug/disk after 3 to 5 days by filter paper disk diffusion method
Helicobacter pylori [7] = experiment: Antibacterial activity against Helicobacter pylori clinical isolates at 0.5 ug/disk after 3 to 5 days by filter paper disk diffusion method
Helicobacter pylori [8] = experiment: Antibacterial activity against Helicobacter pylori clinical isolates at 1 ug/disk after 3 to 5 days by filter paper disk diffusion method
Helicobacter pylori [9] = experiment: Antibacterial activity against Helicobacter pylori clinical isolates at 2 ug/disk after 3 to 5 days by filter paper disk diffusion method
Helicobacter pylori [10] = experiment: Antibacterial activity against Helicobacter pylori clinical isolates at 4 ug/disk after 3 to 5 days by filter paper disk diffusion method
Helicobacter pylori [11] = experiment: Antibacterial activity against Helicobacter pylori clinical isolates at 8 ug/disk after 3 to 5 days by filter paper disk diffusion method
Helicobacter pylori [12] = experiment: Antibacterial activity against Helicobacter pylori clinical isolates at 16 ug/disk after 3 to 5 days by filter paper disk diffusion method
Helicobacter pylori [13] = experiment: Antibacterial activity against Helicobacter pylori clinical isolates at 32 ug/disk after 3 to 5 days by filter paper disk diffusion method

Structure (SMILES)	zone of inhibition at 8 µg/disc (Helicobacter pylori [1]) [mm]	zone of inhibition at 16 µg/disc (Helicobacter pylori [2]) [mm]	zone of inhibition at 32 µg/disc (Helicobacter pylori [3]) [mm]	zone of inhibition at 8 µg/disc (Helicobacter pylori [4]) [mm]	zone of inhibition at 16 µg/disc (Helicobacter pylori [5]) [mm]	zone of inhibition at 32 µg/disc (Helicobacter pylori [6]) [mm]	zone of inhibition at 0.5 µg/disc (Helicobacter pylori [7]) [mm]	zone of inhibition at 1 µg/disc (Helicobacter pylori [8]) [mm]	zone of inhibition at 2 µg/disc (Helicobacter pylori [9]) [mm]	zone of inhibition at 4 µg/disc (Helicobacter pylori [10]) [mm]	zone of inhibition at 8 µg/disc (Helicobacter pylori [11]) [mm]	zone of inhibition at 16 µg/disc (Helicobacter pylori [12]) [mm]	zone of inhibition at 32 µg/disc (Helicobacter pylori [13]) [mm]
O=[N+]([O-])c1ccc(-c2nnc(N3CCCCC3)s2)s1	6	6	6	6	6	6							
O=[N+]([O-])c1ccc(-c2nnc(N3CCOCC3)s2)s1	6	6	15	6	6	6							
O=[N+]([O-])c1ccc(-c2nnc(N3CCOCC3)s2)o1	33	36	42	30	33	48	10.8	17.5	23.7	28.4	32.1	36.6	40
O=[N+]([O-])c1ccc(-c2nnc(N3CCCCC3)s2)o1	28	32	35	27	32	34	13.7	19	24.9	27.4	30.5	33.5	36.5
Cn1c([N+](=O)[O-])cnc1-c1nnc(N2CCOCC2)s1	25	31	32	26	31	33	13.7	19.4	21.3	22.5	27.6	30.6	33.5
Cn1c([N+](=O)[O-])cnc1-c1nnc(N2CC[S+]([O-])CC2)s1	6	19	25	6	15	21							
O=[N+]([O-])c1ccc(-c2nnc(N3CCS(=O)(=O)CC3)s2)s1	6	6	16	6	6	6							
Cn1c([N+](=O)[O-])cnc1-c1nnc(N2CCSCC2)s1	27	31	34	24	27	30	9.9	15.6	20	23.7	27.4	30.4	32.4
O=[N+]([O-])c1ccc(-c2nnc(N3CCSCC3)s2)o1	32	35	41	26	37	42	10.8	18.3	23.4	27.7	30.1	32.9	36.9
O=[N+]([O-])c1ccc(-c2nnc(N3CCSCC3)s2)s1	16	18	22	16	19	21							
O=[N+]([O-])c1ccc(-c2nnc(N3CC[S+]([O-])CC3)s2)s1	34	39	46	32	35	41	13.7	18.5	23.6	28.1	34.4	39.9	45
O=[N+]([O-])c1ccc(-c2nnc(N3CCS(=O)(=O)CC3)s2)o1	43	50	> 50	41	43	46	16.6	21	25.5	30.7	36.1	40.7	44.3
O=[N+]([O-])c1ccc(-c2nnc(N3CC[S+]([O-])CC3)s2)o1	35	41	46	35	40	43	7.3	13.4	19.9	25.4	31	37.1	41.9
Cn1c([N+](=O)[O-])cnc1-c1nnc(N2CCCCC2)s1	6	6	6	6	6	6							
Cn1c([N+](=O)[O-])cnc1-c1nnc(N2CCS(=O)(=O)CC2)s1	32	40	45	27	36	40	10.6	14.9	19.3	25.9	30.2	33.9	37.3
CC1(C)S[C@@H]2[C@H](NC(=O)[C@H](N)c3ccc(O)cc3)C(=O)N2[C@H]1C(=O)O [AMOXICILLIN]								24.5					
Cc1ncc([N+](=O)[O-])n1CCO [METRONIDAZOLE]	18			11							16.3		
